According to ChEMBL document CHEMBL4825731, “[11C]CHDI-626, a PET Tracer Candidate for Imaging Mutant Huntingtin Aggregates with Reduced Binding to AD Pathological Proteins” (J Med Chem, 2021):

Experiments:
[1] = Fraction unbound in mouse brain homogenate at 5 uM incubated for 6 hrs shaking at 250 rpm by LC-MS/MS analysis; assay type: ADME, tissue-based
[2] = Displacement of [3]10-methoxy-N-(pyridin-3-yl-7-thia-2,5-diazatricyclo(6.4.0.0 2.6)-dodeca-1(12),3,5,8,10-pentaene-4-carboxamide from polyglutamine Q46 aggregate (unknown origin) by radio ligand binding assay; design: species or system Homo sapiens
[3] = target: Amyloid-beta precursor protein (Homo sapiens) (UniProt P05067); test: Displacement of [3]10-methoxy-N-(pyridin-3-yl-7-thia-2,5-diazatricyclo(6.4.0.0 2.6)-dodeca-1(12),3,5,8,10-pentaene-4-carboxamide from human Amyloid beta plaques using AD postmortem patient brain homogenates at 1 uM incubated for 2 hr by radio ligand binding assay relative to control; assay type: tissue-based
Sequence of Amyloid-beta precursor protein (Homo sapiens) (P05067 whole entry): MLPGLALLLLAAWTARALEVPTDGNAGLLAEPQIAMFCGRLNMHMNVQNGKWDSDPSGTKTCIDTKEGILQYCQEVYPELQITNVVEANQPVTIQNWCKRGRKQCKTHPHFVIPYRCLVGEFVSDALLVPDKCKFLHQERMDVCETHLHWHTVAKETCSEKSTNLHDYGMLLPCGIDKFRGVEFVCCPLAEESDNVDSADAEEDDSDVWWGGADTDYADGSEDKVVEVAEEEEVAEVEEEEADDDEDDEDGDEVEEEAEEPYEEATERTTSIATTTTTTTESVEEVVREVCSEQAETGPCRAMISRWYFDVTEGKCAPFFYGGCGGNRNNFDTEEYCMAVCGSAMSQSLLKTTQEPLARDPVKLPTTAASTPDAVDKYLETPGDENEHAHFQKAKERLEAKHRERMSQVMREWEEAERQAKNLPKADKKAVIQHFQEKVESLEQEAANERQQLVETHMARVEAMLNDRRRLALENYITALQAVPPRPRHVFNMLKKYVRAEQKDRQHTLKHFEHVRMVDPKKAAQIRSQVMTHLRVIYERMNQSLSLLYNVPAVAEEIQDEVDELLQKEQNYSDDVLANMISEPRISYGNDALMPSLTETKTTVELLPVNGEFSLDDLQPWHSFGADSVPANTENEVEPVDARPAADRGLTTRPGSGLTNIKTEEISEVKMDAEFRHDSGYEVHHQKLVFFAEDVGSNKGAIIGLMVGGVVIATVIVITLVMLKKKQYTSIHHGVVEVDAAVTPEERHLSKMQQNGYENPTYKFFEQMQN

BCRP = test: Efflux ratio of apparent permeability in MDCK cells expressing human BCRP; assay type: ADME, cell-based, Canis lupus familiaris; conditions: dog
MDR1 = test: Efflux ratio of apparent permeability in MDCK cells expressing human MDR1; assay type: ADME, cell-based, Canis lupus familiaris; conditions: dog
[4] = Drug metabolism in C57BL/6 mouse plasma assessed as oxidative metabolite M2a at 0.05 mg/kg, iv; assay type: ADME, organism-based; conditions: in vivo
[5] = Fraction unbound in plasma concentration ratio in C57BL/6 mouse at 0.05 mg/kg, iv; assay type: ADME, organism-based
[6] = AUC (5 to 60 min) in C57BL/6 mouse brain at 0.05 mg/kg, iv; assay type: ADME, organism-based; design: dose 0.05 mg/kg
[7] = Stability in human plasma assessed as half life; assay type: ADME, cell-free
[8] = Apparent permeability in MDCK cells; assay type: ADME, cell-based, Canis lupus familiaris; conditions: dog
[9] = Stability in mouse plasma assessed as half life; assay type: ADME, cell-free
[10] = Half life in human liver microsomes; assay type: ADME, Microsome
[11] = Half life in mouse liver microsomes; assay type: ADME, Microsome
[12] = Fraction unbound in brain concentration ratio in C57BL/6 mouse at 0.05 mg/kg, iv; assay type: ADME, organism-based
[13] = Unbound brain-to-plasma concentration ratio in C57BL/6 mouse at 0.05 mg/kg, iv; assay type: ADME, organism-based; conditions: brain and plasma, read-out: K(p,uu,brain)
[14] = Half life in cynomolgus monkey liver microsomes; assay type: ADME, Macaca fascicularis, Microsome
[15] = Drug metabolism in C57BL/6 mouse brain assessed as oxidative metabolite M2a at 0.05 mg/kg, iv; assay type: ADME, organism-based; conditions: in vivo
[16] = Cmax in C57BL/6 mouse brain at 0.05 mg/kg, iv; assay type: ADME, organism-based; design: route intravenous, dose 0.05 mg/kg
[17] = Cmax in Cynomolgus macaque brain treated bolus injected into sural vein for 5 secs measured 30 to 120 mins by PET analysis; assay type: ADME, organism-based, Macaca fascicularis; design: time upper 120 min, time lower 30 min; conditions: cynomolgus monkey, in vivo, iv
[18] = Tmax in Rhesus macaque brain treated bolus injected into sural vein for 5 secs measured 30 to 120 mins by PET analysis; assay type: ADME, organism-based, Macaca mulatta; conditions: rhesus monkey, in vivo, iv; time 30-120 min
[19] = AUC in Cynomolgus macaque brain to plasma ratio treated bolus injected into sural vein for 5 secs measured 30 to 120 mins by PET analysis; assay type: ADME, organism-based, Macaca fascicularis; conditions: cynomolgus monkey, iv, time 30-120 min
[20] = AUC in Rhesus macaque brain to plasma ratio treated bolus injected into sural vein for 5 secs measured 30 to 120 mins by PET analysis; assay type: ADME, organism-based, Macaca mulatta; conditions: rhesus monkey, iv, time 30-120 min
[21] = Cmax in Rhesus macaque brain treated bolus injected into sural vein for 5 secs measured 30 to 120 mins by PET analysis; assay type: ADME, organism-based, Macaca mulatta; design: time upper 120 min, time lower 30 min; conditions: rhesus monkey, in vivo, iv
[22] = Tmax in Cynomolgus macaque brain treated bolus injected into sural vein for 5 secs by PET analysis; assay type: ADME, organism-based, Macaca fascicularis; conditions: cynomolgus monkey, in vivo, iv, 5 s; time 5 sec

Compound | fraction unbound at 6 h, 5 µM [1] | IC50 ([2]; read-out: IC50) | Activity [3] | also measured
COc1ccc(NC(=O)c2ccc3c4cnccc4n(C)c3n2)cn1 | 0.04 | 1.3 nM |  | 
COc1ccc2c(c1)nc1nc(C(=O)NC3CC3)ccn12 | 0.24 | 351 nM |  | 
COc1ccc(NC(=O)c2ccnc(Nc3ccncc3)n2)cn1 | 0.02 | 5.3 nM |  | 
Cc1cc(NC(=O)c2ccn3c(n2)nc2ccccc23)cnc1C | 0.02 | 1.4 nM | 21% | 
Cn1cc(NC(=O)c2ccn3c(n2)nc2ccccc23)cnc1=O | 0.7 | 302 nM |  | 
O=C(Nc1ccccn1)c1ccn2c(n1)nc1ccccc12 | 0.29 | 8.4 nM | 24% | 
CNc1ccc(-c2cn3c(n2)sc2cc(OCCF)ccc23)cc1 |  | 5.7 nM | 130% | 
COc1ccc2c(c1)nc1nc(C(=O)N3CC(N4CCOCC4)C3)ccn12 |  | 401 nM |  | 
COc1ccc(NC(=O)c2ccc3c4cnccc4n(C(=O)OC(C)(C)C)c3n2)cn1 | 0.03 | 2.8 nM |  | efflux ratio (BCRP): > 7.3; efflux ratio (MDR1): 2
COc1ccc2c(c1)nc1nc(C(=O)Nc3ccc(=O)n(C)n3)ccn12 | 0.25 | 12 nM |  | 
COc1cncc(NC(=O)c2ccn3c(n2)nc2ccccc23)c1 | 0.21 | 3.5 nM | 25% | Drug metabolism [4]: Metabolite_Detected; fraction unbound [5]: 0.07; AUC(0-t) [6]: 2 nM·h; half-life [7]: > 480 min; Papp [8]: 12.5 ×10⁻⁶ cm/s; half-life [9]: 215 min; half-life [10]: 12 min; half-life [11]: 4 min; fraction unbound [12]: 0.21; Kp uu [13]: 1; half-life [14]: 4 min; Drug metabolism [15]: Metabolite_Detected; efflux ratio (BCRP): 2.7; Cmax [16]: 17 nM; efflux ratio (MDR1): 0.8
COc1ncc(NC(=O)c2ccn3c(n2)nc2ccccc23)cc1C | 0.03 | 2.8 nM | -29% | 
COc1ccc2c(c1)nc1nc(C(=O)Nc3ccc(OC)nc3)ccn12 | 0.1 | 2.3 nM | 13% | 
COc1cncc(NC(=O)c2ccn3c(n2)nc2cc(OC)ccc23)c1 | 0.15 | 2.1 nM | 5% | 
COc1ccc(C(=O)Nc2ccn3c(n2)nc2ccccc23)cn1 | 0.16 | 1.6 nM |  | efflux ratio (BCRP): 2.1; efflux ratio (MDR1): 0.5
C#CCCCNC(=O)c1ccn2c(n1)nc1cc(OC)ccc12 | 0.22 | 72 nM |  | 
COc1ccc2c(c1)sc1nc(C(=O)Nc3cccnc3)cn12 | 0.03 | 4.3 nM | 100% | 
COc1ccc2c(c1)nc1nc(C(=O)Nc3cnc(C)c(C)c3)ccn12 |  |  |  | Fu ([1]; 6 h, 5 µM): Nd(Insoluble); IC50 [2]: Nd(Insoluble)
COc1cc(NC(=O)c2ccn3c(n2)nc2ccccc23)cnc1OC | 0.1 | 5.8 nM | 21% | 

Compound | fraction unbound at 6 h, 5 µM [1] | IC50 ([2]; read-out: IC50) | Activity [3] | also measured
COc1ccc(NC(=O)c2ccc3c(c2)nc2ncccn23)cn1 | 0.38 | 69 nM |  | efflux ratio (BCRP): 25; efflux ratio (MDR1): 0.6
COc1ccc2c(c1)nc1nc(C(=O)Nc3ccncn3)ccn12 | 0.23 | 9.2 nM | 30% | 
[11CH3]Oc1ccc(NC(=O)c2ccn3c(n2)nc2ccccc23)cn1 | 0.11 | 3.6 nM |  | Cmax [17]: 3.5 %ID; fraction unbound [5]: 0.09; AUC(0-t) [6]: 3 nM·h; half-life [7]: 127 min; Papp [8]: 9.4 ×10⁻⁶ cm/s; half-life [9]: 100 min; half-life [10]: 8 min; half-life [11]: 8 min; fraction unbound [12]: 0.11; Tmax [18]: 0.8 min; Kp uu [13]: 0.9; Ratio AUC [19]: 0.3; Ratio AUC [20]: 0.9; half-life [14]: 1 min; efflux ratio (BCRP): 0.9; Cmax [21]: 3.2 %ID; Cmax [16]: 21 nM; Tmax [22]: 0.8 min; efflux ratio (MDR1): 0.5
COc1ccc2c(c1)nc1nc(C(=O)Nc3ccccn3)ccn12 | 0.18 | 6.8 nM | 41% | 
O=C(Nc1ccc(=O)[nH]c1)c1ccn2c(n1)nc1ccccc12 | 0.64 | 45 nM |  | 
COc1ccc2c(c1)nc1nc(C(=O)Nc3cccnn3)ccn12 | 0.54 | 17 nM |  | 
O=C(Nc1cccnc1)c1ccn2c(n1)nc1ccccc12 | 0.21 | 39 nM | -12% | 
COc1ccc2c(c1)nc1nc(C(=O)Nc3cccnc3)ccn12 | 0.15 | 10 nM | 17% | 
COc1ccc(COc2ccc3oc(-c4ccc(=O)n(C)n4)nc3c2)nc1 |  |  |  | AUC(0-t) [6]: 65 nM·h; Cmax [16]: 124 nM
Cn1nc(NC(=O)c2ccn3c(n2)nc2ccccc23)ccc1=O | 0.37 | 16 nM | 12% | 
COc1ccc(NC(=O)c2ccc3c(n2)oc2ccncc23)cn1 | 0.06 | 3.3 nM |  | 
COc1ccc2c(c1)nc1nc(C(=O)NC3CCCc4cccnc43)ccn12 (configuration not stated) | 0.17 | 48 nM | 8% | 
Cn1cc(NC(=O)c2ccn3c(n2)nc2ccccc23)ccc1=O | 0.46 | 26 nM |  | 
FCCC1CCN(c2ccn3c(n2)nc2ccccc23)CC1 | 0.12 | > 333 nM | 34% | 
COc1ccc(COc2ccn3c(n2)nc2ccccc23)nc1 |  | 48 nM |  | efflux ratio (BCRP): 1.3; efflux ratio (MDR1): 0.5
CN(C(=O)c1ccn2c(n1)nc1ccccc12)c1ccc(=O)[nH]c1 | 0.51 | > 1000 nM |  | 
COc1ccc(COc2ccn3c(n2)nc2ccccc23)cn1 | 0.08 | 54 nM |  | efflux ratio (BCRP): 0.5; efflux ratio (MDR1): 0.5
COc1ccc2c(c1)nc1nc(C(=O)N3Cc4cccnc4C3)ccn12 | 0.32 | 4.1 nM | 0% | 
